In US20230047825A1, “ANTIMICROBIAL PEPTIDES” (priority 2019, published 2023):
Converted amounts (≈) assume the structure as drawn. Read-outs that look alike come from different tables or passages of the source.

What was measured:
Test in all cases: microbe, parasite or virus in culture
[1] = system: Staphylococcus aureus ATCC 19636 (Smith)
Procedure: (§1) The S. aureus strains ATCC 29213, ATCC 19636, ATCC 33591 (MRSA), BAA-1556 (MRSA USA 300) were obtained from the American Type Culture Collection (ATCC). […] The species identity was confirmed with 16S rRNA analysis.
(§2) Two broth mediums were used, Mueller Hinton Broth and RPMI 1640+5% fetal bovine serum. Test substances were evaluated in 11-point titrations and performed in duplicate.
(§3) The direct colony suspension method was used to prepare inoculated broth. Isolated colonies were taken from an 18-24 h culture plate. Optical density measurements (OD620nm) were used to estimate the bacterial density. […] The stock solutions were diluted by 2-fold serial titrations with their respective vehicles for a total of 11 concentrations.
(§4) A 4 μL aliquot of each dilution was added to 196 μL of broth medium seeded with the organism in wells of a sterilized 96 well polypropylene plate (Nunc™ 249949) using aluminum foil as cover. The final bacterial count was 2 to 8×10^5 CFU/mL. […] The final test article concentration range was 32 to 0.0313 μg/mL.
(§5) Each test substance dilution was evaluated in duplicate on one test occasion. […] Plates were incubated at 35-37° C. for 18 h. The test plates were visually examined and each well was visually scored for growth or complete inhibition of growth. The MIC value was recorded.

[2] = system: Staphylococcus aureus ATCC 29213; conditions: for MIC: Staphylococcus aureus; for susceptibility category (CLSI M100 interpretive criteria) / MIC, antibiotic susceptibility: ATCC 29213
Procedure: as §1, §2, §3, §4, §5

[3] = system: Staphylococcus aureus ATCC 33591 (MRSA); conditions: for MIC: Staphylococcus aureus
Procedure: as §1, §2, §3, §4, §5

[4] = system: Staphylococcus aureus ATCC BAA-1556 (USA300, MRSA)
Procedure: as §1, §2, §3, §4, §5

[5] = system: Staphylococcus aureus VRS-2 (VanA, VRSA); design: MIC, antibiotic susceptibility: unit not given beside the values; conditions: for MIC: Staphylococcus aureus, VRSA; for MIC, antibiotic susceptibility: unit not given
Procedure: as §1, §2, §3, §4, §5

[6] = Staphylococcus aureus, ATCC19636, 18 h, read-out: MIC, antibiotic susceptibility
[7] = ATCC29213, 18 h, read-out: MIC, antibiotic susceptibility, ATCC 29213, CLSI M7-A10, unit inferred
[8] = ATCC33591|MRSA, 18 h, read-out: MIC, antibiotic susceptibility, ATCC 33591, CLSI M7-A10, unit inferred
[9] = Staphylococcus aureus, ATCCBAA1556|BAA1556|MRSA|USA300, 18 h, read-out: MIC, antibiotic susceptibility
[10] = 18 h, read-out: MIC, antibiotic susceptibility, VRS-2, CLSI M7-A10, unit inferred

MIC [1, 6] [µg/mL]	MIC [2, 7] [µg/mL]	MIC [3, 8] [µg/mL]	MIC [4, 9] [µg/mL]	MIC [5, 10] [µg/mL]	Compound	susceptibility category (CLSI M100 interpretive criteria) ([1]; ATCC 19636 (Smith))	susceptibility category (CLSI M100 interpretive criteria) [2]	susceptibility category (CLSI M100 interpretive criteria) ([3]; ATCC 33591)	susceptibility category (CLSI M100 interpretive criteria) ([4]; BAA-1556)	susceptibility category (CLSI M100 interpretive criteria) ([5]; VRS-2)	further results
≤ 0.016	0.016 to 0.031 (≈ 0.0534 to 0.104 µM)	≥ 16	0.125 to 0.25 (≈ 0.418 to 0.835 µM)	> 16	C[C@@H](O)[C@H]1C(=O)N2C(C(=O)O)=C(SCCN=CN)C[C@H]12 [Imipenem]	–	–	–	–	–	–
0.125 (≈ 0.346 µM)	0.125 to 0.25 (≈ 0.346 to 0.692 µM)	0.25 (≈ 0.692 µM)	4 to 8 (≈ 11.1 to 22.1 µM)	32 (≈ 88.6 µM)	C[C@H]1COc2c(N3CCN(C)CC3)c(F)cc3c(=O)c(C(=O)O)cn1c23 [Levofloxacin]	S	S	S	R	R	–
2 to 4 (≈ 5.93 to 11.9 µM)	2 to 4 (≈ 5.93 to 11.9 µM)	0.5 to 1 (≈ 1.48 to 2.96 µM)	2 (≈ 5.93 µM)	2 (≈ 5.93 µM)	CC(=O)NC[C@H]1CN(c2ccc(N3CCOCC3)c(F)c2)C(=O)O1 [Linezolid]	S	S	S	S	S	MIC ([1]; ATCC 19636 (Smith), MHB): 2 µg/mL (≈ 5.93 µM); MIC ([2]; ATCC29213, ATCC 29213, MHB): 4 µg/mL (≈ 11.9 µM); MIC ([2]; ATCC29213, ATCC 29213, RPMI + 5% FBS): 2 µg/mL; MIC ([3]; ATCC 33591, MHB): 2 µg/mL (≈ 5.93 µM); MIC ([3]; ATCC 33591, RPMI + 5% FBS): 1 µg/mL; MIC ([4]; ATCC BAA-1556, MHB): 2 µg/mL (≈ 5.93 µM); MIC ([5]; VRS-2, MHB): 2 µg/mL (≈ 5.93 µM); MIC ([5]; VRS-2, RPMI + 5% FBS): 1 µg/mL
–	0.0625 (≈ 0.163 µM)	–	–	–	C[C@@H](O)[C@H]1C(=O)N2C(C(=O)O)=C(S[C@@H]3CN[C@H](C(=O)N(C)C)C3)[C@H](C)[C@H]12 [Meropenem]	–	–	–	–	–	–
1 (≈ 2 µM)	0.25 to 2 (≈ 0.499 to 3.99 µM)	1 to 2 (≈ 2 to 3.99 µM)	> 64	1 to 2 (≈ 2 to 3.99 µM)	C/C(=C\C(=O)OCCCCCCCCC(=O)O)C[C@@H]1OC[C@H](C[C@@H]2O[C@H]2[C@@H](C)[C@H](C)O)[C@@H](O)[C@H]1O [Mupirocin]	–	–	–	–	–	–

More lines, now with the values behind:

Compound	MIC [1, 6] [µg/mL]	MIC [2, 7] [µg/mL]	MIC [3, 8] [µg/mL]	MIC [4, 9] [µg/mL]	MIC [5, 10] [µg/mL]	susceptibility category (CLSI M100 interpretive criteria) ([1]; ATCC 19636 (Smith))	susceptibility category (CLSI M100 interpretive criteria) [2]	susceptibility category (CLSI M100 interpretive criteria) ([3]; ATCC 33591)	susceptibility category (CLSI M100 interpretive criteria) ([4]; BAA-1556)	susceptibility category (CLSI M100 interpretive criteria) ([5]; VRS-2)	further results
CO/N=C(\C(=O)N[C@@H]1C(=O)N2C(C(=O)[O-])=C(C[N+]3(C)CCCC3)CS[C@H]12)c1csc(N)n1 [Cefepime]	2 (≈ 4.16 µM)	2 to 4 (≈ 4.16 to 8.32 µM)	> 64	16 to 64 (≈ 33.3 to 133 µM)	> 64	–	–	–	–	–	–
CO/N=C(\C(=O)N[C@@H]1C(=O)N2C(C(=O)O)=C(CSc3nc(=O)c(=O)[nH]n3C)CS[C@H]12)c1csc(N)n1 [Ceftriaxone]	4 (≈ 7.21 µM)	4 (≈ 7.21 µM)	> 64	≥ 64	> 64	–	–	–	–	–	–
CCC[C@@H]1C[C@@H](C(=O)N[C@@H]([C@H]2O[C@H](SC)[C@H](O)[C@@H](O)[C@H]2O)[C@H](C)Cl)N(C)C1 [Clindamycin]	0.125 (≈ 0.294 µM)	0.125 (≈ 0.294 µM)	> 64	> 64	> 64	S	S	R	R	R	–
CCCCCCCCCC(=O)N[C@@H](Cc1c[nH]c2ccccc12)C(=O)N[C@H](CC(N)=O)C(=O)N[C@@H](CC(=O)O)C(=O)N[C@@H]1C(=O)NCC(=O)N[C@@H](CCCN)C(=O)N[C@@H](CC(=O)O)C(=O)N[C@H](C)C(=O)N[C@@H](CC(=O)O)C(=O)NCC(=O)N[C@H](CO)C(=O)N[C@@H]([C@H](C)CC(=O)O)C(=O)N[C@@H](CC(=O)c2ccccc2N)C(=O)O[C@@H]1C [Daptomycin]	0.25 (≈ 0.154 µM)	0.125 to 0.5 (≈ 0.0771 to 0.309 µM)	0.5 (≈ 0.309 µM)	0.25 (≈ 0.154 µM)	0.25 (≈ 0.154 µM)	S	S	S	S	S	–
CC[C@H]1OC(=O)[C@H](C)[C@@H](O[C@H]2C[C@@](C)(OC)[C@@H](O)[C@H](C)O2)[C@H](C)[C@@H](O[C@@H]2O[C@H](C)C[C@H](N(C)C)[C@H]2O)[C@](C)(O)C[C@@H](C)C(=O)[C@H](C)[C@@H](O)[C@]1(C)O [Erythromycin]	0.25 to 1 (≈ 0.341 to 1.36 µM)	0.25 to 1 (≈ 0.341 to 1.36 µM)	> 64	> 64	> 64	S-I	S-I	R	R	R	–
Cc1onc(-c2ccccc2)c1C(=O)N[C@@H]1C(=O)N2[C@@H]1SC(C)(C)[C@@H]2C(=O)O [Oxacillin]	0.25 (≈ 0.623 µM)	0.25 to 0.5 (≈ 0.623 to 1.25 µM)	> 64	64 (≈ 159 µM)	> 64	S	S	R	R	R	–
CN(C)c1cc(NC(=O)CNC(C)(C)C)c(O)c2c1C[C@H]1C[C@H]3[C@H](N(C)C)C(O)=C(C(N)=O)C(=O)[C@@]3(O)C(O)=C1C2=O [Tigecycline]	0.125 to 0.25 (≈ 0.213 to 0.427 µM)	–	–	0.25 (≈ 0.427 µM)	–	–	–	–	–	–	MIC ([2]; ATCC29213, 18 h, read-out: MIC, antibiotic susceptibility): 0.125 to 0.25 µg/mL (≈ 0.213 to 0.427 µM); MIC ([3]; ATCC33591|MRSA, 18 h, read-out: MIC, antibiotic susceptibility): 0.25 to 0.5 µg/mL (≈ 0.427 to 0.854 µM); MIC ([5]; 18 h, read-out: MIC, antibiotic susceptibility): 0.25 µg/mL (≈ 0.427 µM)
Gentamicin	–	–	–	–	–	S	S	S	S	R	MIC, antibiotic susceptibility ([1]; ATCC 19636 (Smith), CLSI M7-A10, unit inferred): 0.25 µg/mL; MIC, antibiotic susceptibility ([2]; CLSI M7-A10, unit inferred): 0.25 µg/mL; MIC, antibiotic susceptibility ([3]; ATCC 33591, CLSI M7-A10, unit not given, in µg/mL): 0.25-1; MIC, antibiotic susceptibility ([4]; BAA-1556, CLSI M7-A10, unit not given, in µg/mL (unit assumed)): 0.25-0.5; MIC, antibiotic susceptibility ([5]; VRS-2, CLSI M7-A10, in µg/mL (unit assumed)): 32-64
Teicoplanin	–	–	–	–	–	–	S	–	–	–	MIC, antibiotic susceptibility ([2]; CLSI M7-A10, unit inferred): 0.25 µg/mL
Trimethoprim/sulfamethoxazole	–	–	–	–	–	S	S	S	S	R	MIC, antibiotic susceptibility ([5]; VRS-2, CLSI M7-A10): >8/152
